Test results published in patent US9278963B2, “Pyrimidine hydroxy amide compounds as histone deacetylase inhibitors” (Acetylon Pharmaceuticals, Inc., priority 2013, dated 2016).

Experiments:
HDAC2 = HDAC2 (Homo sapiens (Human), UniProt Q92769); test: HDAC enzyme assay, HDAC2; format: biochemical
Description: Compounds for testing were diluted in DMSO to 50 fold the final concentration and a ten point three fold dilution series was made. The compounds were diluted in assay buffer (50 mM HEPES, pH 7.4, 100 mM KCl, 0.001% Tween-20, 0.05% BSA, 20 μM TCEP) to 6 fold their final concentration. The HDAC enzymes (purchased from BPS Biosciences) were diluted to 1.5 fold their final concentration in assay buffer. The tripeptide substrate and trypsin at 0.05 μM final concentration were diluted in assay buffer at 6 fold their final concentration. The final enzyme concentrations used in these assays were 3.3 ng/ml (HDAC1), 0.2 ng/ml (HDAC2), 0.08 ng/ml (HDAC3) and 2 ng/ml (HDAC6). The final substrate concentrations used were 16 μM (HDAC1), 10 μM (HDAC2), 17 μM (HDAC3) and 14 μM (HDAC6).
Five μl of compounds and 20 μl of enzyme were added to wells of a black, opaque 384 well plate in duplicate. Enzyme and compound were incubated together at room temperature for 10 minutes. Five μ1 of substrate was added to each well, the plate was shaken for 60 seconds and placed into a Victor 2 microtiter plate reader. The development of fluorescence was monitored for 60 min and the linear rate of the reaction was calculated. The IC50 was determined using Graph Pad Prism by a four parameter curve fit.

fetal globin (HbG) = test: Fetal globin (HbG) induction in cultured CD34+ bone marrow cells; format: cell-based, human; conditions: 1 μM, treatment for 4 days
H929 human myeloma cells = test: In vitro cell proliferation, MTS viability; format: cell-based; conditions: up to 7 days, relative to Day 0
Description: Cellular viability was assessed using Aqueous One MTS reagent at Days 0 (immediately after seeding), 3, 5, and 7.

[1] = tested on: SH-SY5Y neuroblastoma cells; test: Neuroblastoma cell cycle by flow cytometry, SH-SY5Y; format: cell-based; conditions: 72 hours, 0.5, 2 and 5 μM (ATRA 1 μM)
Description: The following is a quick summary of the neuroblastoma cell cycle experiments. Adherent cells were plated into 12-well plates at 10^6 cells/well and allowed to adhere for 2-4 hours. Compounds were dispensed in DMSO at the indicated concentrations using an automated liquid handling system (Tecan D300) and incubated for the indicated times at 37° C. with 5% CO2. Cells were harvested with enzyme-free cell disassociation solution and washed with buffered saline. Cells were fixed overnight with 100% ethanol. Cell cycle was assessed by flow cytometry using the Molecular Probes FxCycle PI/RNase Staining Solution kit according to manufacture protocols.
The protocol for the cell cycle experiments was as follows. The day before the experiment, the cells were fed in the flask by doubling the media. Then, the cells were harvested by adding non-enzymatic cell dissociation media and incubating at 37° C. for 15 minutes. Next, the cells were transferred to a 50 ml tube and pipet to create a single-cell suspension. The cells were then washed with PBS buffer. Then, the cells were resuspended in complete media at 5×10^5 cells per ml. Next, 2 ml of cells were transferred to 12-well plates. Then, the treatment compounds were dispensed into each well using the D300 liquid handler. The cells were incubated for the indicated time at 37° C. Then, the cells were harvested by adding 500 μl enzyme free cell dissociation solution and incubating at 37° C. for 15 minutes. Next, the cells were spun into a pellet and then washed with PBS. Then, 500 μl 100% EtOH was added and incubated at 4° C. overnight. Then, the cells were washed 3× with PBS. The cells were then resuspended in […] FxCycle PI/RNase solution, and incubated for 2-4 hours at room temperature. Finally, the cells were assayed by flow cytometry.
SH-SY5Y neuroblastoma cells were treated with varying concentrations of either Compound X or Y, and/or ATRA (all trans retinoic acid). […] In addition, the fold change of p21 was also calculated. […] The HDACi/ATRA combination effects were modest, with little difference compared to single agents.

[2] = tested on: human CD34+ bone marrow cells; test: Cellular viability of cultured CD34+ bone marrow cells; conditions: 1 μM, treatment for 4 days

Sequence of HDAC2 (Q92769 whole entry): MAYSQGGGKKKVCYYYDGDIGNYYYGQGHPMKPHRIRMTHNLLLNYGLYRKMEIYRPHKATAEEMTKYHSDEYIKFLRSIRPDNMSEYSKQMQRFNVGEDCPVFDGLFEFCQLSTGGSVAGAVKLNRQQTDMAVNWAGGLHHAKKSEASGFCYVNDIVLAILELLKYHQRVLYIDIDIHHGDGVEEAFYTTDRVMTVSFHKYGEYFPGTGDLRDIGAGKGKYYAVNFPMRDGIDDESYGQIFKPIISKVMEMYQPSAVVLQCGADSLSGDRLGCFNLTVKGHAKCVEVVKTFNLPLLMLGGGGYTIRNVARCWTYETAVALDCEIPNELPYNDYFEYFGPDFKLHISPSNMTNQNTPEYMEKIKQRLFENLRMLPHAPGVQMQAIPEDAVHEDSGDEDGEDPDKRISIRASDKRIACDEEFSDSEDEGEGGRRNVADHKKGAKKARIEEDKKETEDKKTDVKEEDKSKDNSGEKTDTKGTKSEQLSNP

IC50 (HDAC2): 34 nM
Structure (SMILES): O=C(NO)c1cnc(NC2(c3ccccc3)CCN(C(=O)Nc3ccccc3)CC2)nc1 [Compound 001, N-hydroxy-2-((4-phenyl-1-(phenylcarbamoyl)piperidin-4-yl)amino)pyrimidine-5-carboxamide]
increase in the percentage of HbG relative to other beta-like globin transcripts (fetal globin (HbG)): 2 fold
doses resulting in a net decrease in the viability of H929 cells (H929 human myeloma cells): over 3 uM
percent of the cell population in G2, S, G1 and Sub G1 phase [1]: induced a reduction in G1/G2 and increase in sub-G1
decrease in cells viability [2]: 1.2 fold
